Results reported in patent US6207399A, “Methods of determining endogenous thrombin potential (ETP) and thrombin substrates for use in said methods” (Hemker; Hendrik Coenraad, priority 1995, dated 2001).
Square brackets hold non-standard residues; d marks the D form. Peptide text beside a SMILES is read from it. * marks the point of attachment. pNA = O=[N+]([O-])c1ccc(N*)cc1; Tos = Cc1ccc(S(=O)(=O)*)cc1; Pip = O=C(O)[C@@H]1CCCCN1; Nle = CCCC[C@H](N)C(=O)O; Orn = NCCC[C@H](N)C(=O)O

Assays:
Assay type in all cases: biochemical
[1] = molecular target: T1, human α-thrombin (Homo sapiens, UniProt P00734); assay: Kinetics of hydrolysis of substrates by human α-thrombin in buffer A at 37° C. (Example 2, Table 1); design: key to kcat: NH: not hydrolyzed by thrombin
T1 construct: Pure human α-thrombin; gift of Dr. T. Lindhout (University of Limburg, Maastricht)
Procedure: (§1) Kinetic parameters: The hydrolysis experiments were run in buffer A at 37° C. The liberation of p-nitroaniline was monitored at 405 nm in a dual wavelength (405-546 nm) spectrophotometer made in our workshop, using a personal computer for data recording. In a polystyrene microcuvette (total volume 500 μL), buffer A and substrate solution were added to obtain a final substrate concentration between 1 to 2000 μM. After 5 min of incubation at 37° C., enzyme solution was added to achieve a final concentration between 0.5 to 100 nM. The measurement was carried out at 37° C. in a thermostated cuvette-holder. The Michaelis constant (Km) and the catalytic constant (kcat) were obtained by measuring initial reaction velocities at different substrate concentrations. The data obtained were fitted by linear regression on the Michaelis-Menten equation.
(§2) Kinetic parameters: In a preliminary experiment, the substrate was hydrolyzed under the following conditions: enzyme concentration: 10 to 20 nM, substrate concentration: 200 μM in buffer A to get an impression of the initial velocity. […] The results are given in table 1 and 2 for thrombin and factor Xa respectively. The Km and kcat for each substrate were determined from the initial velocities measured for at least six substrate concentrations in the concentration range as given. The enzyme concentration used gives a good signal to noise ratio. The data given are obtained from one or two experiments. The data from table 1 and 2 were only used as the first selection criterion to get a rough impression of the hydrolysis behaviour. Notwithstanding the preliminary character of the measurement it was helpful in the design of the substrates of our interest.

[2] = molecular target: T2, factor Xa (Homo sapiens, UniProt P00742); assay: Kinetic parameters of hydrolysis of the substrates by factor Xa in buffer A at 37° C. (Example 4, Table 3); details: buffer A, 37° C., 50 nM factor Xa
T2 construct: human factor Xa samples; gift of Dr. T. Lindhout (University of Limburg, Maastricht)
Procedure: as §1, with “200” for “1”, “50” for “100”, “measuring the” for “measuring”
(§3) Kinetic parameters: The Km and kcat values for each substrate were determined at an enzyme concentration of 0.5-50 nM (thrombin) and 50 nM factor Xa. From the initial reaction velocities, measured for at least six substrate concentrations between 200 and 2000 μM, the Km and kcat values were calculated by linear regression on the Michaelis-Menten curve. Table 3 gives an overview of the kinetic parameters of the different substrates hydrolyzed by thrombin and by factor Xa in buffer A.

[3] = molecular target: thrombin (Homo sapiens, UniProt P00734); assay: Kinetic parameters of hydrolysis of the substrates by thrombin in buffer A at 37° C. (Example 4, Table 3); design: Pure human α-thrombin; gift of Dr. T. Lindhout (University of Limburg, Maastricht); key to Thrombin kcat: NH: no hydrolysis; details: buffer A, 37° C.
Procedure: as §1, with “200” for “1”, “50” for “100”, “measuring the” for “measuring”
as §3

[4] = molecular target: T2, factor Xa; assay: Kinetics of hydrolysis of substrates by human factor Xa in buffer A at 37° C. (Example 2, Table 2); design: key to kcat: NH: not hydrolyzed by factor Xa
Procedure: as §1, §2

T2 sequence (P00742 41-179 limits assumed): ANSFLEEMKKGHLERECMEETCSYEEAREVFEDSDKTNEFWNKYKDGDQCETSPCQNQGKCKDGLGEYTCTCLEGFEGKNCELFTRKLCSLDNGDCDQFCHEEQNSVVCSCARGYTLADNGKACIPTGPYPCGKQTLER
T2 sequence (P00742 235-488 limits assumed): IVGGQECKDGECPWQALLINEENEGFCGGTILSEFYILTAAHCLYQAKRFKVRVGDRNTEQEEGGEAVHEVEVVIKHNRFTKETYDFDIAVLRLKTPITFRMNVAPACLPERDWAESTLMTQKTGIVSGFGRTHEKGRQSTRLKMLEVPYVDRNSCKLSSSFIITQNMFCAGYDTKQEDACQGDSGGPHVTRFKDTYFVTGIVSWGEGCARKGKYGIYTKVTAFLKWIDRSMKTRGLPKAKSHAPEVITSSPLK

Km [1] [µM] | kcat [1] | kcat /Km [1] [M/s] | Km [4] [µM] | kcat [4] | kcat /Km [4] [M/s] | SMILES | Factor Xa kcat [2] [s⁻¹] | Factor Xa kcat /Km [2] [M/s] | Km [2] [µM] | Thrombin kcat [3]
65.1 | 118.3 s⁻¹ | 1.82e+06 | 963 | 0.61 s⁻¹ | 631 | Cl.Cl.NCCCC[C@H](NC(=O)[C@@H]1CCCCN1C(=O)[C@H](N)Cc1ccccc1)C(=O)Nc1ccc([N+](=O)[O-])cc1 [2HCl.H-D-Phe-Pip-Lys-pNA] (H-[dF]-[Pip]-Lys-pNA) |  |  |  | 
420 | 4.64 s⁻¹ | 11100 |  |  |  | Cl.Cl.NCCC[C@H](NC(=O)[C@@H]1CCCCN1C(=O)[C@H](N)Cc1ccccc1)C(=O)Nc1ccc([N+](=O)[O-])cc1 [2HCl.H-D-Phe-Pip-Orn-pNA] (H-[dF]-[Pip]-[Orn]-pNA) |  |  |  | 
5.62 | 236.5 s⁻¹ | 4.21e+07 | 174 | 7.49 s⁻¹ | 42900 | NC(N)=NCCC[C@H](NC(=O)[C@@H]1CCCCN1C(=O)[C@H](N)Cc1ccccc1)C(=O)Nc1ccc([N+](=O)[O-])cc1 [2HCl.H-D-Phe-Pip-Arg-pNA] |  |  |  | 
87.9 | 6.66 s⁻¹ | 75400 |  |  |  | CCCC[C@H](NC(=O)[C@@H]1CCCN1C(=O)[C@H](N)Cc1ccccc1)C(=O)Nc1ccc([N+](=O)[O-])cc1.Cl [HCl.H-D-Phe-Pro-Nle-pNA] (H-[dF]-Pro-[Nle]-pNA) |  |  |  | 
474 | 0.35 s⁻¹ | 739 |  | NH |  | Cl.N[C@H](Cc1ccccc1)C(=O)N1CCCC[C@H]1C(=O)N[C@@H](CCC(=O)O)C(=O)Nc1ccc([N+](=O)[O-])cc1 [HCl.H-D-Phe-Pip-Glu-pNA] (H-[dF]-[Pip]-Glu-pNA) |  |  |  | 
3.16 | 28.4 s⁻¹ | 8.99e+06 | 693 | 18.7 s⁻¹ | 26900 | Cl.Cl.N=C(N)NCCC[C@H](NC(=O)[C@@H]1CCCN1C(=O)[C@H](N)Cc1ccccc1)C(=O)Nc1ccc([N+](=O)[O-])cc1 [2HCl.H-D-Phe-Pro-Arg-pNA] |  |  |  | 
943 | 11.4 s⁻¹ | 12100 |  | NH |  | CCCC[C@H](NC(=O)[C@@H]1CCCCN1C(=O)[C@H](N)Cc1ccccc1)C(=O)Nc1ccc([N+](=O)[O-])cc1.Cl [HCl.H-D-Phe-Pip-Nle-pNA] (H-[dF]-[Pip]-[Nle]-pNA) |  |  |  | 

More lines, now with the values behind:

SMILES | Km [1] [µM] | kcat [1] | kcat /Km [1] [M/s] | Km [4] [µM] | kcat [4] | kcat /Km [4] [M/s] | Factor Xa kcat [2] [s⁻¹] | Factor Xa kcat /Km [2] [M/s] | Km [2] [µM] | Thrombin kcat [3]
Cl.Cl.NCC(=O)N[C@@H](CCCN=C(N)N)C(=O)Nc1ccc([N+](=O)[O-])cc1 [2HCl.H-Gly-Arg-pNA] (H-Gly-Arg-pNA) | 2280 | 0.107 s⁻¹ | 46.9 |  |  |  |  |  |  | 
CC(C)[C@H](NC(=O)CNC(=O)CNC(=O)[C@@H]1CCCN1C(=O)[C@@H](N)CCC(=O)O)C(=O)N[C@@H](CCCNC(=N)N)C(=O)Nc1ccc([N+](=O)[O-])cc1 [2HCl.H-EPGGVR-pNA, 2HCl.H-Glu-Pro-Gly-Gly-Val-Arg-pNA] (H-EPGGVR-pNA) |  |  |  |  |  |  | 0.45 | 468 | 961 | NH
Cc1ccc(S(=O)(=O)NCC(=O)N[C@@H](CCCNC(=N)N)C(=O)Nc2ccc([N+](=O)[O-])cc2)cc1.Cl [pTS-Gly-Arg-pNA.HCl] (Tos-Gly-Arg-pNA) |  | NH |  | 233 | 9.26 s⁻¹ | 39800 |  |  |  | 
COc1ccc(COC(=O)NCC(=O)N[C@@H](CCCNC(=N)N)C(=O)Nc2ccc([N+](=O)[O-])cc2)cc1.Cl [MZ-Gly-Arg-pNA.HCl] | 2540 | 12.3 s⁻¹ | 4850 | 4700 | 55.0 s⁻¹ | 11700 |  |  |  | 
C[C@@H](N)C(=O)N[C@@H](CCCNC(=N)N)C(=O)Nc1ccc([N+](=O)[O-])cc1.Cl.Cl [2HCl.H-D-Ala-Arg-pNA] (H-[dA]-Arg-pNA) | 4080 | 0.096 s⁻¹ | 23.5 |  |  |  |  |  |  | 
COC(=O)C(C)C(=O)NCC(=O)NC(CCCNC(=N)N)C(=O)Nc1ccc([N+](=O)[O-])cc1.Cl (mixture of isomers) [MMZ-Gly-Arg-pNA.HCl] | 1740 | 6.60 s⁻¹ | 3800 | 6400 | 43.9 s⁻¹ | 6860 |  |  |  | 
COC(=O)CC(=O)N[C@H](C)C(=O)N[C@@H](CCCNC(=N)N)C(=O)Nc1ccc([N+](=O)[O-])cc1.Cl [MZ-D-Ala-Arg-pNA.HCl] | 1330 | 0.059 s⁻¹ | 44.4 | 3080 | 0.088 s⁻¹ | 28.5 |  |  |  | 
Cl.N=C(N)NCCC[C@H](NC(=O)CNS(=O)(=O)c1ccc2ccccc2c1)C(=O)Nc1ccc([N+](=O)[O-])cc1 [βNS-Gly-Arg-pNA.HCl] |  | NH |  | 116 | 2.00 s⁻¹ | 17300 |  |  |  | 
CC(C)[C@@H](N)C(=O)N[C@@H](CCCNC(=N)N)C(=O)Nc1ccc([N+](=O)[O-])cc1.Cl.Cl [2HCl.H-D-Val-Arg-pNA] (H-[dV]-Arg-pNA) | 4250 | 0.28 s⁻¹ | 65.9 |  |  |  |  |  |  | 
COC(=O)C(C)(C)C(=O)N[C@@H](C)C(=O)N[C@@H](CCCNC(=N)N)C(=O)Nc1ccc([N+](=O)[O-])cc1.Cl [DMMZ-Ala-Arg-pNA.HCl] | 565 | 4.08 s⁻¹ | 7220 | 2240 | 11.04 s⁻¹ | 4930 |  |  |  | 
COC(=O)C(C)C(=O)NC(C)C(=O)NC(CCCNC(=N)N)C(=O)Nc1ccc([N+](=O)[O-])cc1.Cl (mixture of isomers) [MMZ-Ala-Arg-pNA.HCl] | 666 | 16.5 s⁻¹ | 24800 | 7050 | 40.6 s⁻¹ | 5750 |  |  |  | 
CCC(CC)(C(=O)NCC(=O)N[C@@H](CCCNC(=N)N)C(=O)Nc1ccc([N+](=O)[O-])cc1)C(=O)OC.Cl [DEMZ-Gly-Arg-pNA.HCl] | 866 | 1.73 s⁻¹ | 1990 | 2320 | 4.54 s⁻¹ | 1960 |  |  |  | 
C[C@H](N)C(=O)N[C@@H](CCCNC(=N)N)C(=O)Nc1ccc([N+](=O)[O-])cc1.Cl.Cl [2HCl.H-Ala-Arg-pNA] (H-Ala-Arg-pNA) | 1140 | 0.074 s⁻¹ | 64.9 |  |  |  |  |  |  | 
COC(=O)CC(=O)N[C@@H](C(=O)N[C@@H](CCCNC(=N)N)C(=O)Nc1ccc([N+](=O)[O-])cc1)C(C)C.Cl [MZ-D-Val-Arg-pNA.HCl] | 1310 | 0.146 s⁻¹ | 111 | 1820 | 0.13 s⁻¹ | 69.5 |  |  |  | 
COC(=O)C(C)(C)C(=O)NCC(=O)N[C@@H](CCCNC(=N)N)C(=O)Nc1ccc([N+](=O)[O-])cc1.Cl [DMMZ-Gly-Arg-pNA.HCl] | 902 | 6.44 s⁻¹ | 7140 | 2840 | 13.6 s⁻¹ | 4790 |  |  |  | 
COC(=O)CC(=O)N[C@@H](C)C(=O)N[C@@H](CCCNC(=N)N)C(=O)Nc1ccc([N+](=O)[O-])cc1.Cl [MZ-Ala-Arg-pNA.HCl] | 1540 | 107.5 s⁻¹ | 69900 | 5590 | 51.7 s⁻¹ | 9250 |  |  |  | 
